Test results published in patent US20250235456A1, “METHODS OF USE FOR AZA-QUINAZOLINE COMPOUNDS” (Iambic Therapeutics, Inc., priority 2024, published 2025).

Assays:
Type in all cases: biochemical
CDK1/Cyclin B1 = CDK1/Cyclin B1 (Homo sapiens (Human), UniProt P06493); test: CDK1/Cyclin B1 ADP-Glo Kinase Assay
Description: CDK1/Cyclin B1 ADP-Glo Kinase Assay
(§1) The purpose of CDK1/Cyclin Bi assay is to evaluate the inhibition (% inhibition and IC50 values) of small molecule inhibitors by using a Luminescent based ADP-Glo assay. CDK1/Cyclin B1 catalyzes the production of ADP from ATP. ADP-Glo assay monitors ADP producing biochemical reactions. ADP-Glo is performed in 2 steps upon completion of kinase reaction: a combined termination of kinase reaction and depletion of remaining ATP in the first step, and conversion of generated ADP to ATP and the newly produced ATP to light output using luciferase/luciferin reaction in the second step. The luminescent signal generated is proportional to the ADP concentration produced and is correlated with the kinase activity. CDK1/Cyclin B1 was purchased from Carna (Cat 04-102). […] The assay was initiated with the addition of ATP-containing substrate solution, following a 30-minute pre-incubation of enzyme and inhibitor at room temperature in the reaction mixture. The reaction was stopped after 90 minutes at room temperature by the addition of 10 μL of ADP-GLO Reagent. After a 90 minute incubation, 20 μL of Kinase Detection Reagent was added. Samples were incubated for 40 minutes, after which plate well luminescence was measured on a Envision microplate reader. The IC50 determinations were made from a plot of the fractional velocity as a function of inhibitor concentration fit to the 4 parameters IC50 equation.

[1] = biological target: CDK2/Cyclin E1 full length (Homo sapiens (Human), UniProt P24941); test: CDK2/Cyclin E1 Full length ADP-Glo Kinase Assay; conditions: read-out: CDK2/CyclinE1 IC50
Description: CDK2/Cyclin E1 Full length ADP-Glo Kinase Assay
as §1, with “of CDK2/Cyclin El” for “of CDK1/Cyclin Bi”, “assay. CDK2/Cyclin El full length” for “assay. CDK1/Cyclin B1”, “activity. CDK2/Cyclin E1” for “activity. CDK1/Cyclin B1”, “from Eurofins” for “from Carna”, “(Cat 14-475M).” for “(Cat 04-102).”, “20 uL” for “20 μL”

CDK6/Cyclin D3 = CDK6/Cyclin D3 (Homo sapiens (Human), UniProt Q00534); test: CDK6/Cyclin D3 ADP-Glo Kinase Assay; conditions: read-out: CDK6/CyclinD3 IC50
Description: CDK6/Cyclin D3 ADP-Glo Kinase Assay
as §1, with “of the CDK6/Cyclin D3” for “of CDK1/Cyclin Bi”, “values) in the presence” for “values)”, “assay. CDK6/Cyclin D3” for “assay. CDK1/Cyclin B1”, “activity. CDK6/Cychin D3” for “activity. CDK1/Cyclin B1”, “from Carna.” for “from Carna (Cat 04-102).”, “a 90-minute” for “a 90 minute”

CDK4/Cyclin D1 = CDK4/Cyclin D1 (Homo sapiens (Human), UniProt P11802); test: CDK4/Cyclin D1 CHEF Assay; conditions: AQT; read-out: CDK4/CyclinD1 AQT IC50
Text: CDK4/Cyclin D1 CHEF Assay
The purpose of CDK4/Cyclin Dl assay is to evaluate the inhibition (% inhibition and IC50 values) of small molecule inhibitors by using a Chelation-Enhance Fluorescence (CHEF) assay. In a CHEF assay, phosphorylation of a peptide substrate results in proportional increase in fluorescence. CHEF kinase assay use peptide substrates containing a synthetic alpha-amino acid with a side chain bearing an 8-hydroxyquinoline derivative (sulfonamido-oxide, Sox). Upon phosphorylation of a nearby serine, threonine or tyrosine and in the presence of Mg(II), the spectral properties of the Sox residue are altered, emitting 485 nm wavelength light when excited with a 360 nm wavelength light source. CDK4/Cyclin D1 catalyzes the phosphoryl transfer to the SOX-labeled substrate peptide AQT0258 from Assayquant Technologies. […] The reaction was initiated with the addition of substrate solution, following a 30-minute pre-incubation of enzyme and inhibitor at 22° C. in the reaction mix. Reactions were allowed to proceed for 3 hrs at 22° C., followed by fluorescence read of the reaction. The IC50 determinations were made from a plot of the fractional velocity as a function of inhibitor concentration fit to the 4 parameters IC50 equation.

Chain of CDK4/Cyclin D1 (P11802 whole entry, species assumed): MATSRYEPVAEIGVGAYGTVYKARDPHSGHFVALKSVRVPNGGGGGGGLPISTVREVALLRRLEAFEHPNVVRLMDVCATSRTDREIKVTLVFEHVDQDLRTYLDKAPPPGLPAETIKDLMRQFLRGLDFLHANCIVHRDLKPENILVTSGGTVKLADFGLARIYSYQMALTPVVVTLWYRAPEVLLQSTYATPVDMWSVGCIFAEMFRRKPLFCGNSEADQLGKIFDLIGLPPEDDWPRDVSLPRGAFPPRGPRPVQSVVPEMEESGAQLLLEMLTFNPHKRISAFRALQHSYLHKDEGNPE
Chain of CDK4/Cyclin D1 (P24385 whole entry partner, species assumed): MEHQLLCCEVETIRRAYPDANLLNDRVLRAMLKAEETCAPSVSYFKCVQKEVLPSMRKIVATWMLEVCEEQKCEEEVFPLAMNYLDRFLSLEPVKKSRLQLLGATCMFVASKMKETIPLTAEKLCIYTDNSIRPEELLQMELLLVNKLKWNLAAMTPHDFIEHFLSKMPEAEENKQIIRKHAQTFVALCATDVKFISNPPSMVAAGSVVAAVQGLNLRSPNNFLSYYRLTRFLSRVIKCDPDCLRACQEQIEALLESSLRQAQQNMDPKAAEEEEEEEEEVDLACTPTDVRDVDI
Chain of CDK1/Cyclin B1 (P06493 whole entry): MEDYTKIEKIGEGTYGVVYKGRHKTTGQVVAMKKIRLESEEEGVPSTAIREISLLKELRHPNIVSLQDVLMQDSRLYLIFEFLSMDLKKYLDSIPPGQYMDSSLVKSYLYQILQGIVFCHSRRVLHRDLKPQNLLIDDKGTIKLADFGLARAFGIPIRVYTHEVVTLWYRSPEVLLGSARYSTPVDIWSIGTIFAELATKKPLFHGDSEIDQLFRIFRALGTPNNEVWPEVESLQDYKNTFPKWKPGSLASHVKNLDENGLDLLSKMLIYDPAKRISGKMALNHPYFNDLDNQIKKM
Chain of CDK1/Cyclin B1 (P14635 whole entry partner): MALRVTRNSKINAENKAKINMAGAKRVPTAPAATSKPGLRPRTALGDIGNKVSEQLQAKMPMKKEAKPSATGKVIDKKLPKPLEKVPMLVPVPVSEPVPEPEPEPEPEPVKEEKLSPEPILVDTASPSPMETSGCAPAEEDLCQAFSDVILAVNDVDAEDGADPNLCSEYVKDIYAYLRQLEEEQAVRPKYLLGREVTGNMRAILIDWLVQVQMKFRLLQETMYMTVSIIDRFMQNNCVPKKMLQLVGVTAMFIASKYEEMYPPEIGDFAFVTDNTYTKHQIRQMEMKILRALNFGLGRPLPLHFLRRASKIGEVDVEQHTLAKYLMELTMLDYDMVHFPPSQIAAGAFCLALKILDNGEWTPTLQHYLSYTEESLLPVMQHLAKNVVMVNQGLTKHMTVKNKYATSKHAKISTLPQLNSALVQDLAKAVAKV
Chain of CDK6/Cyclin D3 (Q00534 whole entry): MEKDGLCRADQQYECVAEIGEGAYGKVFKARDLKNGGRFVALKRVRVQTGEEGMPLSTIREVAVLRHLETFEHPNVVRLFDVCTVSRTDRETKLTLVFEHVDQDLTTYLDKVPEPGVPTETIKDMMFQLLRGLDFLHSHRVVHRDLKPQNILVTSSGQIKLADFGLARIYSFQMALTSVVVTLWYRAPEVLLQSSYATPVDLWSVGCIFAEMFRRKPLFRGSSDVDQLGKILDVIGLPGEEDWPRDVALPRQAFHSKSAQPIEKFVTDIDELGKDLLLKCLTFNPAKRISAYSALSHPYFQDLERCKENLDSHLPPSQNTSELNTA
Chain of CDK6/Cyclin D3 (P30281 whole entry partner): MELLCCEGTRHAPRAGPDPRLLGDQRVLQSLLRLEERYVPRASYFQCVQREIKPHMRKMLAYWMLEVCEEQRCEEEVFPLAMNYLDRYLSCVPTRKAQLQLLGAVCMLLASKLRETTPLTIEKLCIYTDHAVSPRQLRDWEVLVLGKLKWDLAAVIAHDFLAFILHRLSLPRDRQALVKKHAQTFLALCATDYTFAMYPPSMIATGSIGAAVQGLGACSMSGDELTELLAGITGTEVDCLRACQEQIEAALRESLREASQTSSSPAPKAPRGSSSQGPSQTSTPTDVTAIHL

SMILES	IC50 (CDK1/Cyclin B1) [nM]	IC50 [1] [nM]	IC50 (CDK6/Cyclin D3) [nM]	IC50 (CDK4/Cyclin D1) [nM]
Cc1cc2cnc(NC3CCN(S(=O)(=O)C4(C)CC4)CC3)nc2c(C2CC(C)(O)C2)n1 (stereo not drawn) [Compound 63, 1-methyl-3-(6-methyl-2-((1-((1-methylcyclopropyl)sulfonyl)piperidin-4-yl)amino)pyrido[3,4-d]pyrimidin-8-yl)cyclobutan-1-ol]	> 2000	200 to 500	> 2000	–
COC1CC2(C1)CN(c1nc(C3CC3)cc3cnc(NC4CCN(S(C)(=O)=O)CC4)nc13)C2 [Compound 75, 6-cyclopropyl-8-(6-methoxy-2-azaspiro[3.3]heptan-2-yl)-N-(1-(methylsulfonyl)piperidin-4-yl)pyrido[3,4-d]pyrimidin-2-amine]	> 2000	–	< 200	< 200
COC1CC2(C1)CN(c1nc(C)cc3cnc(NC4CCN(S(C)(=O)=O)CC4)nc13)C2 [Compound 76, 8-(6-methoxy-2-azaspiro[3.3]heptan-2-yl)-6-methyl-N-(1-(methylsulfonyl)piperidin-4-yl)pyrido[3,4-d]pyrimidin-2-amine]	200 to 500	–	< 200	< 200
Cc1cc2cnc(NC3CCN(S(C)(=O)=O)CC3)nc2c(N2CC3(CCC(=O)N3)C2)n1 [Compound 77, 2-(6-methyl-2-((1-(methylsulfonyl)piperidin-4-yl)amino)pyrido[3,4-d]pyrimidin-8-yl)-2,5-diazaspiro[3.4] octan-6-one]	200 to 500	–	< 200	< 200
Cc1cc2cnc(NC3CCN(S(=O)(=O)C4CC4)CC3)nc2c(N2CC3(C2)CC(C)(O)C3)n1 [Compound 78, 2-(2-((1-(cyclopropylsulfonyl)piperidin-4-yl)amino)-6-methylpyrido[3,4-d]pyrimidin-8-yl)-6-methyl-2-azaspiro[3.3]heptan-6-ol]	200 to 500	–	200 to 500	< 200
Cc1cc2cnc(NC3CCN(S(C)(=O)=O)CC3)nc2c(N2CC3(C2)CC(C)(O)C3)n1 [Compound 79, 6-methyl-2-(6-methyl-2-((1-(methylsulfonyl)piperidin-4-yl)amino)pyrido[3,4-d]pyrimidin-8-yl)-2-azaspiro[3.3]heptan-6-ol]	200 to 500	–	200 to 500	< 200
Cc1cc2cnc(NC3CCN(S(C)(=O)=O)CC3)nc2c(N2CC3(CNC(=O)C3)C2)n1 [Compound 81, 2-(6-methyl-2-((1-(methylsulfonyl)piperidin-4-yl)amino)pyrido[3,4-d]pyrimidin-8-yl)-2,6-diazaspiro[3.4] octan-7-one]	200 to 500	–	200 to 500	< 200
Cc1cc2cnc(NC3CCN(S(C)(=O)=O)CC3)nc2c(N2CC3(CCC(=O)NC3)C2)n1 [Compound 82, 2-(6-methyl-2-((1-(methylsulfonyl)piperidin-4-yl)amino)pyrido[3,4-d]pyrimidin-8-yl)-2,6-diazaspiro[3.5] nonan-7-one]	200 to 500	–	200 to 500	200 to 500
Cc1cc2cnc(Nc3ccc(CS(C)(=O)=O)cc3)nc2c(N2CC(O)(C3CC3)C2)n1 [Compound 83, 3-cyclopropyl-1-(6-methyl-2-((4-((methylsulfonyl)methyl)phenyl)amino)pyrido[3,4-d]pyrimidin-8-yl)azetidin-3-ol]	200 to 500	–	< 200	< 200
Cc1cc2cnc(NC3CCN(S(=O)(=O)c4cnn(C)c4)CC3)nc2c(N2CC3(CCNCC3(F)F)C2)n1 [Compound 87, 8-(5,5-difluoro-2,7-diazaspiro[3.5]nonan-2-yl)-6-methyl-N-(1-((1-methyl-1H-pyrazol-4-yl)sulfonyl)piperidin-4-yl)pyrido[3,4-d]pyrimidin-2-amine]	< 200	–	< 200	< 200
Cc1cc2cnc(NC3CCN(S(C)(=O)=O)CC3)nc2c(C2CC(O)(C3CC3)C2)n1 (stereo not drawn) [Compound 88, 1-cyclopropyl-3-(6-methyl-2-((1-(methylsulfonyl)piperidin-4-yl)amino)pyrido[3,4-d]pyrimidin-8-yl)cyclobutan-1-ol]	200 to 500	–	< 200	< 200
Cc1cc2cnc(NC3CCN(S(=O)(=O)c4cnn(C)c4)CC3)nc2c(N2CC(F)(F)C3(CNC3)C2)n1 [Compound 89, 8-(8,8-difluoro-2,6-diazaspiro[3.4]octan-6-yl)-6-methyl-N-(1-((1-methyl-1H-pyrazol-4-yl)sulfonyl)piperidin-4-yl)pyrido[3,4-d]pyrimidin-2-amine]	< 200	–	< 200	< 200
Cc1cc2cnc(NC3CCN(S(C)(=O)=O)CC3)nc2c(N2CC(O)(C(F)F)C2)n1 [Compound 91, 3-(difluoromethyl)-1-(6-methyl-2-((1-(methylsulfonyl)piperidin-4-yl)amino)pyrido[3,4-d]pyrimidin-8-yl)azetidin-3-ol]	< 200	–	< 200	< 200
Cc1cc2cnc(NC3CCN(S(C)(=O)=O)CC3)nc2c(N2CC(F)(F)C3(CNC3)C2)n1 [Compound 92, 8-(8,8-difluoro-2,6-diazaspiro[3.4]octan-6-yl)-6-methyl-N-(1-(methylsulfonyl)piperidin-4-yl)pyrido[3,4-d]pyrimidin-2-amine]	< 200	–	< 200	< 200
CCS(=O)(=O)N1CCC(Nc2ncc3cc(C)nc(N4CC(F)(F)C5(CNC5)C4)c3n2)CC1 [Compound 95, 8-(8,8-difluoro-2,6-diazaspiro[3.4]octan-6-yl)-N-(1-(ethylsulfonyl)piperidin-4-yl)-6-methylpyrido[3,4-d]pyrimidin-2-amine]	< 200	–	< 200	< 200
Cc1cc2cnc(NC3CCN(S(C)(=O)=O)CC3)nc2c(N2CC3(CNCC3F)C2)n1 (stereo not drawn) [Compound 98, 8-(8-fluoro-2,6-diazaspiro[3.4]octan-2-yl)-6-methyl-N-(1-(methylsulfonyl)piperidin-4-yl)pyrido[3,4-d]pyrimidin-2-amine]	200 to 500	–	200 to 500	< 200
Cc1cc2cnc(NC3CCN(S(=O)(=O)C4CC4)CC3)nc2c(N2CC(F)(F)C3(CN(C)C3)C2)n1 [Compound 102, N-(1-(cyclopropylsulfonyl)piperidin-4-yl)-8-(8,8-difluoro-2-methyl-2,6-diazaspiro[3.4]octan-6-yl)-6-methylpyrido[3,4-d]pyrimidin-2-amine]	< 200	–	< 200	< 200
